Test results taken from article PMC11055985, “Metochalcone induces senescence-associated secretory phenotype via JAK2/STAT3 pathway in breast cancer” (Oncology Research, 2024).

Target: STAT3 (Homo sapiens, UniProt P40763)
Experiment: microscale thermophoresis (MST) with His-tag-labelled purchased STAT3 protein (ACROBiosystems ST3-H5149)
Assay type: binding

Sequence of STAT3 (P40763 2-770): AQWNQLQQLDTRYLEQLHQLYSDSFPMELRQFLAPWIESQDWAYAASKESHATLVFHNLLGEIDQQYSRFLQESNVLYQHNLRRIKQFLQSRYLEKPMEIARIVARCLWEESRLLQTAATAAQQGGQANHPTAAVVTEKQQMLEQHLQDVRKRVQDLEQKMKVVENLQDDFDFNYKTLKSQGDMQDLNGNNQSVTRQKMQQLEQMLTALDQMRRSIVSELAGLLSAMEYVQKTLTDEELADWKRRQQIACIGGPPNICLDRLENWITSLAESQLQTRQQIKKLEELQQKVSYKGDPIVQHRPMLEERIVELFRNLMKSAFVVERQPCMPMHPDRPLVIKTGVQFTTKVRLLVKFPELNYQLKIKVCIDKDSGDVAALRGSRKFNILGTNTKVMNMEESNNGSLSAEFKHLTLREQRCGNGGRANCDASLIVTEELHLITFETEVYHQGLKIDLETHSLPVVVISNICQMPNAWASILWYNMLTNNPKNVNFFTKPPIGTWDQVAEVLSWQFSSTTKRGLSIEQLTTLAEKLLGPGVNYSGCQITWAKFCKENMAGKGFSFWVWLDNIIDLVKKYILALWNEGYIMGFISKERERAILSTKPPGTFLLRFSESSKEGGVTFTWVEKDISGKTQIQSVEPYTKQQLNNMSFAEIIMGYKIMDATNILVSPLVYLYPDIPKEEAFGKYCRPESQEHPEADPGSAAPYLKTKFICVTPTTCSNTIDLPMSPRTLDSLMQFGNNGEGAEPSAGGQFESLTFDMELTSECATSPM

Kd: 9.85 µM
SMILES: COc1ccc(/C=C/C(=O)c2ccc(OC)cc2OC)cc1 [TEC, 2', 4, 4'-trimethoxychalcone]
